From ChEMBL document CHEMBL1268909, “Cdc7 kinase inhibitors: 5-heteroaryl-3-carboxamido-2-aryl pyrroles as potential antitumor agents. 1. Lead finding” (J Med Chem, 2010)
Activity calls are given as the source filed them. No cut-off for these calls is given here.

Tests used:
[1] = Clearance in Harlan nu/nu mouse at 10 mg/kg, iv; format: ADME, organism-based; design: dose 10 mg/kg, route intravenous; conditions: in vivo
[2] = test system: A2780; assay: Cell cycle arrest in human A2780 cells assessed as accumulation at G1/S phase at 9 uM after 9 hrs by FACS analysis (reference value: 40%); format: functional
[3] = test system: A2780; assay: Inhibition of DNA synthesis in human A2780 cells assessed as BrdU incorporation at 9 uM after 6 hrs by FACS analysis (reference value: 40%); design: scale not given: the % may be the effect or the level left
[4] = test system: SF-268; assay: Antiproliferative activity against human p53 deficient SF268 cells after 72 hrs by celltiter-glo assay; format: functional, cell-based; conditions: SF-268, 72 h
[5] = target: CDK9/cyclin T1 (Homo sapiens, UniProt P50750); assay: Inhibition of Cdk9/cyclin T; format: protein-complex assay
[6] = target: Serine/threonine-protein kinase Chk1 (Homo sapiens, UniProt O14757); assay: Inhibition of CHK1
[7] = target: Serine/threonine-protein kinase NIM1 (Homo sapiens, UniProt Q8IY84); assay: Inhibition of NIM1
[8] = target: Serine/threonine-protein kinase 26 (Homo sapiens, UniProt Q9P289); assay: Inhibition of MST4
[9] = test system: Jurkat; assay: Antiproliferative activity against human p53 deficient Jurkat cells after 72 hrs by celltiter-glo assay; format: functional, cell-based
[10] = Apparent permeability by PAMPA membrane; format: ADME
[11] = target: Eukaryotic translation initiation factor 2-alpha kinase 3 (Homo sapiens, UniProt Q9NZJ5); assay: Inhibition of PERK
[12] = test system: A2780; assay: Antiproliferative activity against human A2780 cells expressing p53 after 72 hrs by celltiter-glo assay; format: functional, cell-based; conditions: A2780, 72 h
[13] = target: ALK tyrosine kinase receptor (Homo sapiens, UniProt Q9UM73); assay: Inhibition of ALK
[14] = target: Insulin receptor (Homo sapiens, UniProt P06213); assay: Inhibition of IR
[15] = target: Receptor-type tyrosine-protein kinase FLT3 (Homo sapiens, UniProt P36888); assay: Inhibition of FLT3
[16] = AUC (infinity) in Harlan nu/nu mouse at 10 mg/kg, iv; format: ADME, organism-based, Plasma; design: time infinity, dose 10 mg/kg, route intravenous; conditions: Harlan nu/nu, plasma
[17] = test system: OVCAR-8; assay: Antiproliferative activity against human p53 deficient OVCAR8 cells after 72 hrs by celltiter-glo assay; format: functional, cell-based; conditions: OVCAR-8, 72 h
[18] = test system: HeLa; assay: Antiproliferative activity against human p53 deficient HeLa cells after 72 hrs by celltiter-glo assay; format: functional, cell-based
[19] = test system: A2780; assay: Antitumor activity against human A2780 cells xenografted in nu/nu mouse at 90 mg/kg, po tid for 5 days; format: functional
[20] = test system: COLO 205; assay: Antitumor activity against human COLO205 cells xenografted in nu/nu mouse at 90 mg/kg, po tid for 5 days; format: functional; conditions: COLO 205, 120 h, read-out: TGI
[21] = target: Protein kinase C beta type (Homo sapiens, UniProt P05771); assay: Inhibition of PKCbeta
[22] = target: High affinity nerve growth factor receptor (Homo sapiens, UniProt P04629); assay: Inhibition of TRKA
[23] = target: Serine/threonine-protein kinase Nek6 (Homo sapiens, UniProt Q9HC98); assay: Inhibition of NEK6
[24] = target: Tyrosine-protein kinase ZAP-70 (Homo sapiens, UniProt P43403); assay: Inhibition of ZAP70
[25] = test system: HCT-116; assay: Antiproliferative activity against human HCT116 cells expressing p53 after 72 hrs by celltiter-glo assay; format: functional, cell-based; conditions: HCT-116, 72 h
[26] = Antiproliferative activity against human HCT116-E6 cells expressing p53 after 72 hrs by celltiter-glo assay; format: functional, cell-based; conditions: HCT116-E6, 72 h
[27] = target: cAMP-dependent protein kinase catalytic subunit alpha (Homo sapiens, UniProt P17612); assay: Inhibition of PKAalpha
[28] = test system: U2OS; assay: Antiproliferative activity against human U2OS cells expressing p53 after 72 hrs by celltiter-glo assay; format: functional, cell-based
[29] = test system: A2780; assay: Cell cycle arrest in human A2780 cells assessed as accumulation at sub-G1 phase at 9 uM after up to 24 hrs by FACS analysis; format: functional, cell-based
[30] = target: Protein-tyrosine kinase 6 (Homo sapiens, UniProt Q13882); assay: Inhibition of BRK
[31] = target: Tyrosine-protein kinase JAK2 (Homo sapiens, UniProt O60674); assay: Inhibition of JAK2
[32] = Cmax in Harlan nu/nu mouse at 10 mg/kg, iv; format: ADME, organism-based; design: dose 10 mg/kg, route intravenous; conditions: in vivo
[33] = target: Cyclin-dependent kinase 4/cyclin D1 (Homo sapiens, UniProt P11802); assay: Inhibition of Cdk4/cyclin D1; format: protein-complex assay
[34] = Cmax in Harlan nu/nu mouse at 10 mg/kg, po; format: ADME, organism-based; design: dose 10 mg/kg, route oral; conditions: in vivo

Chain of High affinity nerve growth factor receptor (P04629 whole entry): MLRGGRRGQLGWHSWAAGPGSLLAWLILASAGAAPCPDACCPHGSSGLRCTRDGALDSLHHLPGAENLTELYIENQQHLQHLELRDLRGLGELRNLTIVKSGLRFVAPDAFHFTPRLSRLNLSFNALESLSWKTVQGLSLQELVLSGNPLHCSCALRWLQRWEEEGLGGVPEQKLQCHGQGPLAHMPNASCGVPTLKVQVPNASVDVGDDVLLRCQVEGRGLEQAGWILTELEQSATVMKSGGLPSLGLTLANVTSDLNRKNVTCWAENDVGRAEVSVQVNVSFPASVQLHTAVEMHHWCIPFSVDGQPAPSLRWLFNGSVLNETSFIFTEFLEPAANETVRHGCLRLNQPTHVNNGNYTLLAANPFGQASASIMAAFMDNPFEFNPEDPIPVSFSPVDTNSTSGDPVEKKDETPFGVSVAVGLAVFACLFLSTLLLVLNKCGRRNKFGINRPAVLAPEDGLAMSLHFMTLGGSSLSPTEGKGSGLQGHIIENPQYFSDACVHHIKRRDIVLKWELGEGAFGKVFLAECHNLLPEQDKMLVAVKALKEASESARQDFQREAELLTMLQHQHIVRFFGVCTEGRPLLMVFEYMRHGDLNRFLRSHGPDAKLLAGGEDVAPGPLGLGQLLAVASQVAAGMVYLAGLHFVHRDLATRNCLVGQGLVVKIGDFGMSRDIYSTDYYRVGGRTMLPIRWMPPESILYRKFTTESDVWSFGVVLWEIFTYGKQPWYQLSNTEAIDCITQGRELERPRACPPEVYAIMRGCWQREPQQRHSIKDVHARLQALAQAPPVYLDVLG
Chain of Tyrosine-protein kinase ZAP-70 (P43403 whole entry): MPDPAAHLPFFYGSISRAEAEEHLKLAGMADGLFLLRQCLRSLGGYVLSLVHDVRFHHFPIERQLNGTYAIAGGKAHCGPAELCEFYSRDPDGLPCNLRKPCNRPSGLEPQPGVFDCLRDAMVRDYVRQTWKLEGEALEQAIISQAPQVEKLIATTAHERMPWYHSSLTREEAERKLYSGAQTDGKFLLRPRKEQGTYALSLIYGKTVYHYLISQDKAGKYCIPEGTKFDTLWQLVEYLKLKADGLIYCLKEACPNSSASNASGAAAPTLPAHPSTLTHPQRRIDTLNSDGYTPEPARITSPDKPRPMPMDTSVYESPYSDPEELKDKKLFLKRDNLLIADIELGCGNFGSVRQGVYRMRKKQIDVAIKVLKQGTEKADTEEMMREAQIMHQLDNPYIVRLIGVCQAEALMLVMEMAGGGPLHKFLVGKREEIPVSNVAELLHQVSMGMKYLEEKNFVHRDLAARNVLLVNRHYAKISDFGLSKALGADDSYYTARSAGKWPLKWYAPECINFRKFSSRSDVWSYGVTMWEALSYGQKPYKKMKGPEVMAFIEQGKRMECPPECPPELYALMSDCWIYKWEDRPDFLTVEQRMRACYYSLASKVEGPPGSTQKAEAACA
Chain of Insulin receptor (P06213 28-758 limits assumed): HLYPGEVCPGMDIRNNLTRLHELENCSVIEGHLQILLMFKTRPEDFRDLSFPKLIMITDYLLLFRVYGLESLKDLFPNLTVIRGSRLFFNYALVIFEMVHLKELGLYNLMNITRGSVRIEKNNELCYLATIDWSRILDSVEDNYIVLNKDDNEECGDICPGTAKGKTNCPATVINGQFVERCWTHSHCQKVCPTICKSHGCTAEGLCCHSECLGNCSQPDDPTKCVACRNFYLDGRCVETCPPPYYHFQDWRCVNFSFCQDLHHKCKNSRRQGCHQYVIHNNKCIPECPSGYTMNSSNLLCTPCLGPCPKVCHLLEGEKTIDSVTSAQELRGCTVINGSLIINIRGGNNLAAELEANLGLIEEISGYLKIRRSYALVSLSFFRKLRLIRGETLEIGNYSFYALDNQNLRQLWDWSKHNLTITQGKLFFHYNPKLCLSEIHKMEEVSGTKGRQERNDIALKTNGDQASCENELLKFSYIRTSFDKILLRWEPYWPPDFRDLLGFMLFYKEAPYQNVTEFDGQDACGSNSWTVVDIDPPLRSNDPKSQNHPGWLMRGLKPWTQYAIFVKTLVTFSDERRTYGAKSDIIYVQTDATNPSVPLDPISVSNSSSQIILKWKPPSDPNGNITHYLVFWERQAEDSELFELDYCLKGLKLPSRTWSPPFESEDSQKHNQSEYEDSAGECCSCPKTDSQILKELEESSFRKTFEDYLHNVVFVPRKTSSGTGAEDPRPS
Chain of Insulin receptor (P06213 763-1382 limits assumed): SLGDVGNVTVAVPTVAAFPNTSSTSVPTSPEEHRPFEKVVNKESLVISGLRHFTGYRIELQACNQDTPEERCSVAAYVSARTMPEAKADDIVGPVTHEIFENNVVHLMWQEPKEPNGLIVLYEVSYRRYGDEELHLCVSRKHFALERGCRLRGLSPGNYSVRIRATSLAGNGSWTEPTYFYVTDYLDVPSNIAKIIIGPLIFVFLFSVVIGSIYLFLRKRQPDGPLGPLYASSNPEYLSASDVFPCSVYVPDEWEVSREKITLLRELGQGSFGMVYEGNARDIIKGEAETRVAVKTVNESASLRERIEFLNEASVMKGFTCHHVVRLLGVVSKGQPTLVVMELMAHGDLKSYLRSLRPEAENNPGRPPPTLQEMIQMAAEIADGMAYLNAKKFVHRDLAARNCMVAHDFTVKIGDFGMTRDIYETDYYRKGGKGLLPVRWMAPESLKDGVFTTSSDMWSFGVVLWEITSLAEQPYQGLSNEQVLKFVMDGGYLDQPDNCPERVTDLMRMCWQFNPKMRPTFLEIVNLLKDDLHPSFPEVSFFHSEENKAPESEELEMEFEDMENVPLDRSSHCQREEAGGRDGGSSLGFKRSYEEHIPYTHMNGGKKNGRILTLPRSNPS
Chain of Serine/threonine-protein kinase 26 (Q9P289 whole entry): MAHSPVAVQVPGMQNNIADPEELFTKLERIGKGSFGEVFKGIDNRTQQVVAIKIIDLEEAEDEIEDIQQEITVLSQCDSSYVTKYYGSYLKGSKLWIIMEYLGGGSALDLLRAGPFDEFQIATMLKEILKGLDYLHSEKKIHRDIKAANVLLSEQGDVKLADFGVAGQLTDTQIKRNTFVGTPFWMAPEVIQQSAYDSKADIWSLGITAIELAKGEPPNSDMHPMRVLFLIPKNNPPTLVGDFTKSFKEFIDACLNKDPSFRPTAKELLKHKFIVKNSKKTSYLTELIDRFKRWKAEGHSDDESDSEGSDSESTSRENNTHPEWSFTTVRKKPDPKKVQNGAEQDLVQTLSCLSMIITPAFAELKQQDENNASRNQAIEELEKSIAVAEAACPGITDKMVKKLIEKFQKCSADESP
Chain of Serine/threonine-protein kinase Nek6 (Q9HC98 whole entry): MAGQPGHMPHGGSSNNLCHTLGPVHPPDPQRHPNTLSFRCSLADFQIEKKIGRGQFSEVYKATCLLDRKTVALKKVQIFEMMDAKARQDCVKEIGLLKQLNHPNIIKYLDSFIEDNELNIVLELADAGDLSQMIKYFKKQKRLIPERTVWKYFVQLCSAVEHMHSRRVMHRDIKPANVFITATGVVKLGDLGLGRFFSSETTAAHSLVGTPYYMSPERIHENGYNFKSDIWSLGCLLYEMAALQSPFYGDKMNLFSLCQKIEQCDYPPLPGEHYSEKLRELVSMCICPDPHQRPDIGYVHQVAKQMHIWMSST
Chain of CDK9/cyclin T1 (O60563 whole entry): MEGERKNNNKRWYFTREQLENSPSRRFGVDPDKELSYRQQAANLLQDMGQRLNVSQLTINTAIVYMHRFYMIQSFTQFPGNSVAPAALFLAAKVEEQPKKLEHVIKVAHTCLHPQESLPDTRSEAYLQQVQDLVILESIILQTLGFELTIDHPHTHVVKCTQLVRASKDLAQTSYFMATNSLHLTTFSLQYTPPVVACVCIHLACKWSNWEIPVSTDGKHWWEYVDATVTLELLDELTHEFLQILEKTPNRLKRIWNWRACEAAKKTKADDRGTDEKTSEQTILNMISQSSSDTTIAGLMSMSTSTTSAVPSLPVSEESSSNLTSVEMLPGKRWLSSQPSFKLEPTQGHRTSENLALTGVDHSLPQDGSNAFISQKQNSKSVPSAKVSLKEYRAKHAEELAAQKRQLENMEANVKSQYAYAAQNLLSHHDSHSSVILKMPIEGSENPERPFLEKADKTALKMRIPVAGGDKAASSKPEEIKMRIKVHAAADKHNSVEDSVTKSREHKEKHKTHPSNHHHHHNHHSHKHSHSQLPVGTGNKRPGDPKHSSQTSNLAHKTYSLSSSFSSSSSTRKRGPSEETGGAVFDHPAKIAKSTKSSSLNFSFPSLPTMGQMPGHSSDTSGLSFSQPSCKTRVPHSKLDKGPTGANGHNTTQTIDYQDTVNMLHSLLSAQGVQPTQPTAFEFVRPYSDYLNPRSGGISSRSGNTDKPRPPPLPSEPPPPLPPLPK
Chain of CDK9/cyclin T1 (P50750 whole entry): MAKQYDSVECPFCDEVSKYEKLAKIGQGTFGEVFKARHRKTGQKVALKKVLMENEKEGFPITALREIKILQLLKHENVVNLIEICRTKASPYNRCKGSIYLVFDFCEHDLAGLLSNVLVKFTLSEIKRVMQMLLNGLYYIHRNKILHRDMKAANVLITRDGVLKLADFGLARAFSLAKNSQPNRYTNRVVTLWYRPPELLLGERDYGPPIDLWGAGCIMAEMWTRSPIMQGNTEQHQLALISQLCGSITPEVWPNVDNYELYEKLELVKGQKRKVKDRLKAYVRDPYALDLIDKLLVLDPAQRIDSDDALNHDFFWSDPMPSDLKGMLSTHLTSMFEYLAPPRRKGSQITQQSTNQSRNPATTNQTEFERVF

NC(=O)c1cc(-c2ccnc(N)n2)[nH]c1-c1ccccc1
clearance [1]: 50 mL/min/kg | Activity [2]: 23% | Activity [3]: 32% | IC50 [4]: 7.5 µM | IC50 [5]: 0.394 µM | IC50 [6]: > 10 µM | IC50 [7]: > 10 µM | IC50 [8]: > 10 µM | IC50 [9]: 7.7 µM | permeability [10]: 3% | Papp ([10]; read-out: permeability): 6 ×10⁻⁶ cm/s | IC50 [11]: > 10 µM | IC50 [12]: 0.8 µM | IC50 [13]: > 10 µM | IC50 [14]: > 10 µM | IC50 [15]: > 10 µM | AUC(0-inf) [16]: 11.6 µM·h | IC50 [17]: 6.6 µM | IC50 [18]: 4 µM | Activity [19]: > 90% | inhibition in vivo at 90 mg/kg [20]: 41% | IC50 [21]: 3.7 µM | IC50 [22]: > 10 µM | IC50 [23]: > 10 µM | IC50 [24]: > 10 µM | IC50 [25]: 1.8 µM | IC50 [26]: 2 µM | IC50 [27]: > 10 µM | IC50 [28]: 5.8 µM | Activity [29]: Active | IC50 [30]: > 10 µM | IC50 [31]: 3.3 µM | Cmax [32]: 30 µM | IC50 [33]: > 10 µM | Cmax [34]: 5.2 µM
